Reference: patent US4707484A, “Substituted piperidinomethylindolone and cyclopent(b)indolone derivatives” (Hoffmann-La Roche Inc., priority 1986, dated 1987)
Counter-ions that a name gives are not always drawn. Like-named read-outs stand apart in the source and are kept apart here.

How the values were obtained:
[1] = biological target: T1, dopamine receptors (Rattus norvegicus, UniProt P61169); test: 3H-spiroperidol binding test (rat striatal brain homogenates); settings: 0.2 nM 3H-spiroperidol, 20 min, read-out: Binding IC50 (inhibition of 3H-spiroperidol binding to dopamine receptors)
T1 construct: rat striatal brain homogenates; from tissue; host or cells: rat striatum (brain homogenate)
Description: Dopamine receptor antagonism by compounds of formula I in vitro is determined by the ^3 H-spiroperidol binding assay. In this test, rat striatal brain homogenates were incubated for 20 minutes in the presence of 0.2 nanomolar ^3 H-spiroperidol and varying concentrations of test compounds. The incubations were terminated by rapid filtrations through Whatman GF/B filters, followed by 2×5 mL washes with ice-cold assay buffer (50 mM tribase-HCl pH 7.7 which contains fixed concentrations of 0.1% ascorbic acid, 120 mM NaCl, 5 mM KCl, 2 mM CaCl2, and 1 mM MgCl2).

[2] = tested on: D-amphetamine hyperactivity (central nervous system dopamine receptors); test: Antagonism of D-amphetamine hyperactivity in mice; settings: Mus musculus, read-out: Antagonism of Amphetamine Hyperactivity ED50
[3] = tested on: apomorphine-induced rearing; test: Antagonism of apomorphine-induced rearing in mice; settings: for ED50: Mus musculus; for Antagonism of Apomorphine Rearing % protected at 10 mg/kg: intravenous 10 mg/kg
[4] = Side effect evaluation in dogs; assay type: in vivo, dog (beagle); settings: oral 1 mg/kg, then one day later 10 mg/kg; observed six hours
Description: For side effect liability evaluation, pure breed beagle dogs from Marshall Inc., North Rose, N.Y., were used. Prior to dosing, the dogs were fasted for approximately 18 hrs. Dosing was orally by gelatin capsule. […] Compound of formula Ia was initially administered orally at a dose of 1 mg/kg and then one day later at an oral dose of 10 mg/kg. An experienced observer monitored these dogs for six hours, following dosing.

[5] = tested on: apomorphine emesis; test: Anti-apomorphine emesis in dogs; assay type: in vivo, dog (female Beagle); settings: Canis lupus familiaris, po; orally, 1 hour before apomorphine HCl 0.1 mg/kg s.c.; 1 hour observation; read-out: anti-emetic ED50 (apomorphine emesis)
Description: Pure-bred female Beagle dogs (Fa. WIGA, Versuchstier-Zuchtanstalt, 8741 Sulzfeld, GFR) with an approximate body weight of 15 kg were used. All dogs were shown previously to vomit at least four times during the 60 minutes following injection of 0.1 mg/kg apomorphine .HCl s.c. into the neck. Each dog was used in 14 day intervals. Three drug sessions were followed by an apomorphine control session.
The compound of formula If was administered suspended in 5% acacia at different dose levels by oral gavage to at least 4 dogs per dose. One hour later 0.1 mg/kg apomorphine .HCl was injected s.c. and the dogs observed for a further hour for vomiting.

[6] = tested on: cisplatin-induced emesis; test: Anti-cisplatin emesis in dogs; assay type: in vivo, dog (Beagle); settings: for effectiveness against apomorphine and cisplatin emesis (in words): dogs
Description: The procedure was as follows:
In the evaluation 6 male and 6 female Beagle dogs, supplied by White Eagle Laboratories, Doylestown PA., were used. Three dogs were tested daily. Each dog received either saline-placebo, 30 ml i.v.; the compound of formula If, 10 mg/kg i.v.; or domperidone 10 mg/kg i.v. The compound of formula If was dissolved in warm sterile water for injection. Domperidone was solubilized in acetic acid and the pH was adjusted with 2N NaOH. Both drugs were diluted to an infusion volume of 30 mL with sterile water. The treatments were infused over a 30-minute (n=3) or a 60-minute (n=9) period. […] The cisplatin, 1 mg/ml dissolved in sterile water, was infused over a 10 minute period. Each treatment was given to 2 male and 2 female weight-matched dogs.
The dogs were fed Wayne dog food moistened in water, 20 grams/kg, one hour prior to treatment. During the observation period the onset, frequency and severity of vomiting episodes as well as any atypical behavioral activity was recorded.
Statistical evaluation of emetic activity was done using Student's-t test for unpaired data.

[7] = po, 2 h, read-out: Antagonism of Apomorphine rearing ED50
[8] = 10 mg/kg i.v., cisplatin 3 mg/kg i.v.

T1 sequence (P61169 whole entry): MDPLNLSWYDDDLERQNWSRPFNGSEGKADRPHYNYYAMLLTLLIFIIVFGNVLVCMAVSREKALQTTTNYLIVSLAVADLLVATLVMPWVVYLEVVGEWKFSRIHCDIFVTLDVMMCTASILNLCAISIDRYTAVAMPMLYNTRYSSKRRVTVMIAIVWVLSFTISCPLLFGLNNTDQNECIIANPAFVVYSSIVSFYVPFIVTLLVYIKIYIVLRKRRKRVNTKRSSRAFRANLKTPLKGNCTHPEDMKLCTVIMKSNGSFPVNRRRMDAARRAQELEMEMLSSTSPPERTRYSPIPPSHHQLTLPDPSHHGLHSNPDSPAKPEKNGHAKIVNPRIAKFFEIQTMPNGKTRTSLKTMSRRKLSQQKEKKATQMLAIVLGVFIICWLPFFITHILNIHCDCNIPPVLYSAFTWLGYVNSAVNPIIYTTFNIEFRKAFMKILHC

| SMILES | IC50 [1] [nM] | ED50 ([2]; po, 1 h) [mg/kg] | ED50 [3, 7] [mg/kg] | Antagonism of Apomorphine Rearing % protected at 10 mg/kg ([3]; 4 hr after administration) [%] | Antagonism of Apomorphine Rearing % protected at 10 mg/kg ([3]; 7 hr after administration) [%] | also measured |
| --- | --- | --- | --- | --- | --- | --- |
| CC1NC(=O)C2(CCN(CC3CCc4[nH]c5c(c4C3=O)CCC5)CC2)N1c1ccccc1 (stereo not shown) [Compound Ib, 8-[(1,2,3,4,5,6,7,8-octahydro-8-oxocyclopent[b]indol-7-yl)methyl]-2-methyl-1-phenyl-1,3,8-triazaspiro[4.5]-decan-4-one] | 0.94 | > 100 | > 100 | 36 | 36 |  |
| Cc1[nH]c2c(c1C)C(=O)C(CN1CCC3(CC1)C(=O)NCN3c1ccccc1)CC2 (stereo not shown) [Compound Id, 8-[4,5,6,7-tetrahydro-(2,3-dimethyl-4-oxo-1H-indol-5-yl)methyl]-1-phenyl-1,3,8-triazaspiro[4.5]decan-4-one] | 0.078 | 147 | 12 |  |  | ED50 ([2]; iv, 4 h): > 20 mg/kg; ED50 ([3]; iv, 4 h, read-out: Antagonism of Apomorphine Rearing ED50): 5.1 mg/kg |
| CCc1c(C)[nH]c2c1C(=O)C(CN1CCC3(CC1)C(=O)NCN3C1CCCCC1)CC2 (stereo not shown) [Compound Ie] | 0.082 | 235 | 98 | 62 | 79 |  |
| O=C(CCCN1CCC(O)(c2ccc(Cl)cc2)CC1)c1ccc(F)cc1 [haloperidol, reference compound] |  | 0.23 | 0.18 |  |  |  |
| CCc1c(C)[nH]c2c1C(=O)C(CN1CCC3(CC1)C(=O)NCN3c1ccccc1)CC2 (stereo not shown) [Compound Ia, 8-[(3-ethyl-4,5,6,7-tetrahydro-2-methyl-4-oxo-1H-indol-5-yl)methyl]-1-phenyl-1,3,8-triazaspiro[4.5]-decan-4-one] | 0.095 | > 100 | > 100 |  |  | grossly observable abnormal signs (behavior, motor coordination) [4]: Neither dose level produced any grossly observable alteration in behavior or motor coordination nor were any other abnormal signs seen; ED50 ([2]; iv, 2 h): 15.9 mg/kg; ED50 ([2]; iv, 7 h): 8.6 mg/kg; ED50 ([3]; iv, 2 h, read-out: Antagonism of Apomorphine Rearing ED50): 7 mg/kg; ED50 ([3]; iv, 7 h, read-out: Antagonism of Apomorphine Rearing ED50): 2.3 mg/kg |
| O=C1c2c([nH]c3c2CCC3)CCC1CN1CCC2(CC1)C(=O)NCN2C1CCCCC1 (stereo not shown) [Compound Ic, 8-[(1,2,3,4,5,6,7,8-octahydro-8-oxocyclopent[b]indol-7-yl)methyl]-1-cyclohexyl-1,3,8-triazaspiro[4.5]-decan-4-one] | 0.52 | > 100 | > 100 | 40 | 40 |  |
| O=c1[nH]c2ccccc2n1CCCN1CCC(n2c(=O)[nH]c3cc(Cl)ccc32)CC1 [domperidone] |  | 194 | 23 |  |  | ED50 [5]: 0.2 mg/kg; emesis versus controls (in words) [6, 8]: did not differ significantly from controls; Vomiting episodes Mean (± S.E.) 6 Hrs [6, 8]: 12.5 ± 2.3; Vomiting episodes Mean (± S.E.) 1 hr. [6, 8]: 2.1 ± 0.7; effectiveness against apomorphine and cisplatin emesis (in words) [6]: only effective against apomorphine emesis in dogs |
| O=C1c2c([nH]c3c2CCC3)CCC1CN1CCC2(CC1)C(=O)NCN2c1ccccc1 (stereo not shown) [Compound If, 1,2,3,5,6,7-hexahydro-7-[(4-oxo-1-phenyl-1,3,8-triazaspiro[4.5]decan-8-yl)methyl]-4H-cyclopent[b]indol-8(8H)-one] | 0.35 | > 100 | 12 |  |  | ED50 [5]: 0.75 mg/kg; Vomiting episodes Mean (± S.E.) 6 Hrs [6, 8]: 6.0 ± 1.8; Vomiting episodes Mean (± S.E.) 1 hr. [6, 8]: 1.0 ± 0.4; effectiveness against apomorphine and cisplatin emesis (in words) [6]: effective against both apomorphine and cisplatin emesis in dogs |
| CN(C)CCCN1c2ccccc2Sc2ccc(Cl)cc21 [chloropromazine HCl, reference compound] |  | 2.1 | 4.9 |  |  |  |
